Measurements taken from US12208140B2, “Targeted delivery to beta cells” (THE BROAD INSTITUTE, INC., priority 2017, dated 2025).
Entries after “also recorded” stand apart in the source; their conditions may differ. Where two headings read alike, the source gives them in different places.

Experiments:
[1] = test system: liver, adipose, muscle, and kidney tissue; test: proliferation of other tissues in 5-IT-treated mice; assay type: in vivo; conditions: 0.625 mg/kg i.p. twice a week for 3 weeks
CLK1 = CLK1 (Homo sapiens, UniProt P49759); test: kinase activity profiling, CLK1; assay type: biochemical
human β-cells [2] = test: glucose-stimulated insulin secretion (GSIS) in dissociated islet cells; assay type: cell-based; conditions: cells treated for 12 days
Source text: In the DMSO-treated state, glucose stimulated ˜2-fold increase in insulin secretion in dissociated islet cells. […] Although incompletely understood, the loss of basal secretion may be due to cell-death effects on other cells in the culture system.

human β-cells [3] = test: human islet cell-culture EdU proliferation assay; assay type: cell-based
Source text: A human islet cell-culture system and proliferation assay developed by Wagner et al. was used to not only of preserve β-cell function over 7-10 days in culture, but also identify conditions that increase β-cell division.[32] The thymidine analog 5-ethinyl-2′-deoxyuridine (EdU) was used, which, when reacted with an azide-conjugated fluorophore, enables rapid and high-quality imaging of cells that have ever gone through S phase.[34] The detection was paired with insulin immunofluorescence, followed by automated imaging and analysis to identify EdU+ins+ cells after compound treatment. Islet cells were incubated with EdU for 6 days, consistent with the low rate of human β-cell proliferation. […] The quality of the assay was verified by using as a positive control adenoviral overexpression of human CDK6 and cyclin D1.[35]
[38] […] This effect was consistent across >20 human islet donors, irrespective of age, gender, BMI, or cause of death.

DYRK1B = DYRK1B (Homo sapiens, UniProt Q9Y463); test: kinase activity profiling, DYRK1B; assay type: biochemical
DYRK2 = biological target: T1, DYRK2 (Homo sapiens, UniProt Q92630); test: kinase activity profiling, DYRK2; assay type: biochemical
T1 sequence (Q92630 1-601): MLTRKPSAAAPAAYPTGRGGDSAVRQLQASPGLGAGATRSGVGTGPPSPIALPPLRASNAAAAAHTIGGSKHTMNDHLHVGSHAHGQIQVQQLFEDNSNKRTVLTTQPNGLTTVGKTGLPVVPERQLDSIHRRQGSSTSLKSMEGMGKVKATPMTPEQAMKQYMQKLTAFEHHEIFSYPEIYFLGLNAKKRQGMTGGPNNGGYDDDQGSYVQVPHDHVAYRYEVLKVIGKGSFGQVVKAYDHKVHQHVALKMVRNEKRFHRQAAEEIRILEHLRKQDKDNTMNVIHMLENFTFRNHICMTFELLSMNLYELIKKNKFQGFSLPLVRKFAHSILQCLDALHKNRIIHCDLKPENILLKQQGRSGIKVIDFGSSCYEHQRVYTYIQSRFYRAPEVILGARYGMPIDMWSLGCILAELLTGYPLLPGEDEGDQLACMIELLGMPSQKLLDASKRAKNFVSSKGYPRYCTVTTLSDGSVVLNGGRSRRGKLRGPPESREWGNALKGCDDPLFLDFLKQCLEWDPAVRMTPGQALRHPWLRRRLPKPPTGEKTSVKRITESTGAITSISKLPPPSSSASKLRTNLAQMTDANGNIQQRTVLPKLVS

CLK2 = CLK2 (Homo sapiens, UniProt P49760); test: kinase activity profiling, CLK2; assay type: biochemical
human β-cells [4] = test: human islet grafts in NSG mice, β-cell replication; assay type: in vivo, human islets transplanted in NSG mice
Source text: 1) Establishing a humanized mouse model: The humanized mouse model is established according to Kulkarni et al.[22,23] Briefly, the immunodeficient NOD.Cg-Prkdc^scidIl2rg^tm1Wj1SzJ mouse strain, commonly known as NOD-scid gamma (NSG), combines features of the NOD/ShiLtJ background and […], known as the severe combined immune deficiency mutation (scid), which essentially eliminates adaptive immunity. This strain has utility in studies of hematopoietic and cancer stem cells and of islet transplantation.
A separate group of mice with human islet transplants were injected with DMSO as vehicle controls, and sham-operated animals were used as an additional control group. The injection was repeated twice a week for 3 weeks. In the final week, we injected BrdU (100 mg/kg) daily for 4 days, and six hours after the last BrdU injection the pancreas was harvested. β-cell replication was assessed using previously described protocols.[23] For sivelestat experiments, osmotic pumps loaded with compound (300 μg/kg/day) were implanted into mice, and were treated for 14 days. Mice were provided BrdU in drinking water and injected i.p. on days 8, 11, and 14. Islets were harvested five hours after the last BrdU injection.

CLK4 = CLK4 (Homo sapiens, UniProt Q9HAZ1); test: kinase activity profiling, CLK4; assay type: biochemical
mouse islets (β-cells) [5] = test: sivelestat treatment of mouse islets, β-cell proliferation; conditions: in vivo
Experimental: (§1) Next, sivelestat, a small-molecule inhibitor of elastinolytic proteases and thus a partial mimic of serpinB1 activity, was tested for β-cell proliferation. […] Thus, small molecules promote β-cell proliferation in human islets transplanted in vivo by targeting two independent pathways.

[6] = test system: liver, skeletal muscle, visceral and subcutaneous adipose tissue, spleen, or kidney; assay type: in vivo, mouse; conditions: data not shown
Experimental: as §1

islets = test: islet fluorescence after intraperitoneal injection of DA-ZP1; assay type: in vivo; conditions: single dose 50 mg/kg intraperitoneally, 10-12-week old C57BL/6 mice
Experimental: (§2) Next, this probe was incubated in dissociated rat or human islets, co-staining for insulin to identify β-cells and glucagon to identify alpha cells. […] Using confocal microscopy, distinct green-fluorescent vesicles were observed within β-cells (FIG. 3D), showing the high degree of resolution for the localization of this probe. Finally, 10-12-week old C57BL/6 mice were injected intraperitoneally with a single dose of 50 mg/kg DA-ZP1 or DMSO.

[7] = test system: aTC1.6, PANC1, HEK293T and cells of other lineages; test: reaction-based probe (DA-ZP1) fluorescence in non-β cell types
Experimental: (§3) All the imaging experiments were performed in 96 well plate. INS-1E, PANC1, αTC1.6, HEK293T and other cell types were plated in 96 well plate. 70 μL, 4×PFA was added in each well to fix the cells. After 15 minutes, all the wells were washed with PBS. After washing with PBS, 70 μL DAPI (1×) (nuclear stain) was added along with appropriate concentration of DAZP-1. The staining process was continued for 20 minute and 100 μL PBS as was added in each well.

[8] = test system: β-cells and alpha cells of dissociated rat or human islets; test: probe incubation in dissociated islets, co-staining for insulin and glucagon; assay type: cell-based
Experimental: as §2

INS-1E = test: reaction-based probe (DA-ZP1) fluorescence in a β-cell line; conditions: compared to other cell types
Experimental: as §3

human islets (β-cells) = test: human islet β-cell proliferation with rSerpinB1; assay type: cell-based
Source text: (§4) Liver was found as the source of a secreted factor in this model that can induce β-cell proliferation in mouse and human islets.[24] A proteomics effort using liver, liver explant-conditioned media, hepatocyte-conditioned media, and plasma led to the discovery that serpin B1, a protease inhibitor that targets elastases, is enriched in serum from LIRKO mice (FIG. 10).[1]

mouse islets (β-cells) [9] = test: mouse islet culture, Ki67 proliferation; assay type: cell-based
Source text: as §4

[10] = human islet cells, 6 days of treatment
[11] = 0.625 mg/kg i.p. twice a week for 3 weeks

Chain of CLK1 (P49759 whole entry): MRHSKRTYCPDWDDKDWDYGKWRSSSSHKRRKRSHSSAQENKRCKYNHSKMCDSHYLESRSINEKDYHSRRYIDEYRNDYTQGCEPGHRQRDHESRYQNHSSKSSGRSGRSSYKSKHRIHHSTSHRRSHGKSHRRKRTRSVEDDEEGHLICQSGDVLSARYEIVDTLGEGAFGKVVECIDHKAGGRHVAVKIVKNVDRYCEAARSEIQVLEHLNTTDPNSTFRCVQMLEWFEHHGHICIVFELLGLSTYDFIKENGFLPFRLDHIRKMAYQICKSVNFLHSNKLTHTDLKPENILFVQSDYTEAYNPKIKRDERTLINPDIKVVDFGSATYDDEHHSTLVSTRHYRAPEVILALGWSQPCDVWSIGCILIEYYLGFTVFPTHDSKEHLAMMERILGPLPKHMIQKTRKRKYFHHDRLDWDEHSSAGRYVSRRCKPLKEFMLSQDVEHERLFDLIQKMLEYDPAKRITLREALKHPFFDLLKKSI
Chain of DYRK1B (Q9Y463 whole entry): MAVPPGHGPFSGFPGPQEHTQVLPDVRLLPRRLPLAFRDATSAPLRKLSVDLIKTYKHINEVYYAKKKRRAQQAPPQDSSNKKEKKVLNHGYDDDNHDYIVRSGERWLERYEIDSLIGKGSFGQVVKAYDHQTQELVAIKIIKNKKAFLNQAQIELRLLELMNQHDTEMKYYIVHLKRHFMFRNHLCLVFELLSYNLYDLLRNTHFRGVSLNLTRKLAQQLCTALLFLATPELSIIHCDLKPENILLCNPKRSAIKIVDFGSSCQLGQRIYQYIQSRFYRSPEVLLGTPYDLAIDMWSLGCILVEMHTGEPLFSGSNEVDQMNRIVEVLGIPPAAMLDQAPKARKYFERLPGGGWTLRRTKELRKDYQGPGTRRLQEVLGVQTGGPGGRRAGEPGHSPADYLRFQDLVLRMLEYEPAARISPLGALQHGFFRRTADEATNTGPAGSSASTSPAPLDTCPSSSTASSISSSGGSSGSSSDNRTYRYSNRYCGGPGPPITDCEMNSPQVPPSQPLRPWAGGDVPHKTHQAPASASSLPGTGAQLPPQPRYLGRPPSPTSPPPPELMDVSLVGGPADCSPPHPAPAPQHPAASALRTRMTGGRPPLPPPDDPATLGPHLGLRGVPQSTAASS
Chain of CLK4 (Q9HAZ1 whole entry): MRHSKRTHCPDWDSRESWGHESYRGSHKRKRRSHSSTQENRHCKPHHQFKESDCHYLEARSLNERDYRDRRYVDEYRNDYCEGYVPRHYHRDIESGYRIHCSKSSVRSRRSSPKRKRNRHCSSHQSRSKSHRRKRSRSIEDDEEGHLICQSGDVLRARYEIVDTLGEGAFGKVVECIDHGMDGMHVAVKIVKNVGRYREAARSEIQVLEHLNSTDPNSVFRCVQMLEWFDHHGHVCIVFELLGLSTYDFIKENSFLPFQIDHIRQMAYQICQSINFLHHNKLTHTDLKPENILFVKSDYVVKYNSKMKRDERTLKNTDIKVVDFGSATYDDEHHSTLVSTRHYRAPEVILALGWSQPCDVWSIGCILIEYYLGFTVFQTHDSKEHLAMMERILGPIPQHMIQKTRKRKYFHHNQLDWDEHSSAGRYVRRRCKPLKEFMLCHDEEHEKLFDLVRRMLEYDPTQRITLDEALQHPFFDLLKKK
Chain of CLK2 (P49760 whole entry): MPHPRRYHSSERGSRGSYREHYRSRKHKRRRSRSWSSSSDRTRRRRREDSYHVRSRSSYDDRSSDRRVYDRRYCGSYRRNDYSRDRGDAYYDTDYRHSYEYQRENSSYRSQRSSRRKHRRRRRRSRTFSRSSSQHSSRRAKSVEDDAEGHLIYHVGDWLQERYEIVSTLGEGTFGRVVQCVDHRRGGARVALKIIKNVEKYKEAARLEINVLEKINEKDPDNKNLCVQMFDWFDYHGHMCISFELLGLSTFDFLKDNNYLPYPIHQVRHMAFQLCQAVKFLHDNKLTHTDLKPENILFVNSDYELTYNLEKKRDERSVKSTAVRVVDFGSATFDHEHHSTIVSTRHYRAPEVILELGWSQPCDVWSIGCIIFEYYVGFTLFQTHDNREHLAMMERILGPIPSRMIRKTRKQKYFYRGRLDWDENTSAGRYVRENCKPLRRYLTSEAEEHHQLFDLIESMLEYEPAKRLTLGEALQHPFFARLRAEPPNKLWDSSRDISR

Nc1ncnc2c1c(I)cn2[C@@H]1O[C@H](CO)[C@@H](O)[C@H]1O [5-IT, 5-iodotubercidin]
proliferation of liver, adipose, muscle, and kidney tissue, control vs treated mice [1]: No significant differences
IC50 (CLK1): 36 nM
baseline secretion under low-glucose conditions (human β-cells [2]): decreased somewhat in a dose-dependent manner
glucose-stimulated insulin secretion (GSIS) (human β-cells [2]): an increase in GSIS was observed
concentrations toxic to cells (human β-cells [3]; human islet cells): greater than 1 μM
effect on EdU incorporation / β-cell proliferation (human β-cells [3]; human islet cells): promotes
concentration of maximal effect on proliferation (human β-cells [3]; [10]): 1 µM
increase in proliferation (EdU incorporation) (human β-cells [3]; [10]): ~10 fold
proliferation of the other cell types in the heterogeneous culture system (human β-cells [3]; non-β cells of human islet culture): did not induce proliferation
IC50 (DYRK1B): 10 nM
IC50 (DYRK2): 6 nM
IC50 (CLK2): 10 nM
increase in BrdU incorporation in human islet grafts (human β-cells [4]; [11]): ~5 fold
mitosis by Ki67 and pHH3 immunostaining in human islet grafts (human β-cells [4]; [11]): enhanced mitosis was confirmed
IC50 (CLK4): 14 nM

CC(C)(C)C(=O)Oc1ccc(S(=O)(=O)Nc2ccccc2C(=O)NCC(=O)O)cc1 [sivelestat]
β-cell proliferation in mouse islets (mouse islets (β-cells) [5]): increased β-cell proliferation
effect on liver, skeletal muscle, visceral and subcutaneous adipose tissue, spleen, or kidney [6]: without a significant effect
proliferation of human β-cells (islet grafts) (human β-cells [4]; osmotic pumps 300 μg/kg/day, 14 days): increased proliferation

COc1ccc2c(c1)[nH]c1c(C)nccc12 [harmine]
EdU+ins+ cells (human β-cells [3]; 5 and 10 μM, 6-days treatment, human islet cells): dose-dependent increase
effect on EdU incorporation / β-cell proliferation (human β-cells [3]; human islet cells): promotes β-cell proliferation in a dose-dependent manner

CC(=O)Oc1c(Cl)cc2c(c1CN(Cc1ccccn1)Cc1ccccn1)Oc1c(cc(Cl)c(OC(C)=O)c1CN(Cc1ccccn1)Cc1ccccn1)C21OC(=O)c2ccccc21 [DA-ZP1]
fluorescence in islet sections (islets): Fluorescence was detected
fluorescence / labeling in other cell types [7]: do not observe non-specific labeling
fluorescence / labeling in other cell types ([7]; listed as reaction-based probe): minimal background fluorescence
overlap between glucagon-positive and zinc probe-positive cells [8]: very little to no overlap
overlap between insulin-positive and zinc probe-positive cells [8]: high degree of overlap
fluorescence in β-cells (INS-1E) (INS-1E): high average fluorescent cell intensity and high % fluorescence-positive cells
fluorescence in β-cells (INS-1E) (INS-1E; listed as reaction-based probe): highly fluorescent

Nc1ncnc2nc(-c3ccc(N4CCOCC4)nc3)cc(-c3cccc(Br)c3)c12 [ABT-702, 4-amino-5-(3-bromophenyl)-7-(6-morpholinopyridin-3-yl)pyrido[2,3-d]pyrimidine]
effect on EdU incorporation / β-cell proliferation (human β-cells [3]; human islet cells): does not; also recorded: no effect

B1: rSerpinB1: recombinant human serpinB1, a protease inhibitor that targets elastases (protein, UniProt P30740 1-379, looked up)
Leukocyte elastase inhibitor: MEQLSSANTRFALDLFLALSENNPAGNIFISPFSISSAMAMVFLGTRGNTAAQLSKTFHFNTVEEVHSRFQSLNADINKRGASYILKLANRLYGEKTYNFLPEFLVSTQKTYGADLASVDFQHASEDARKTINQWVKGQTEGKIPELLASGMVDNMTKLVLVNAIYFKGNWKDKFMKEATTNAPFRLNKKDRKTVKMMYQKKKFAYGYIEDLKCRVLELPYQGEELSMVILLPDDIEDESTGLKKIEEQLTLEKLHEWTKPENLDFIEVNVSLPRFKLEESYTLNSDLARLGVQDLFNSSKADLSGMSGARDIFISKIVHKSFVEVNEEGTEAAAATAGIATFCMLMPEENFTADHPFLFFIRHNSSGSILFLGRFSSP
β-cell proliferation from human islets (human islets (β-cells)): dose-dependent increase
effect on Ki67+ insulin+ cells (mouse islets (β-cells) [9]): dose-dependent effect
increase in the percentage of Ki67+ins+ cells (mouse islets (β-cells) [9]; dose of 1 μg/mL): 2 fold
effect on Ki67+ insulin+ cells (mouse islets (β-cells) [9]; listed as serpinB1): dose-dependent effect
effect on Ki67+ insulin+ cells (mouse islets (β-cells) [9]; listed as untagged SerpinB1): promotes

B2: inactive N-tagged serpin B1 construct: inactive N-tagged serpin B1 construct from GeneCopoeia (protein, UniProt P30740 1-379, looked up)
Leukocyte elastase inhibitor: MEQLSSANTRFALDLFLALSENNPAGNIFISPFSISSAMAMVFLGTRGNTAAQLSKTFHFNTVEEVHSRFQSLNADINKRGASYILKLANRLYGEKTYNFLPEFLVSTQKTYGADLASVDFQHASEDARKTINQWVKGQTEGKIPELLASGMVDNMTKLVLVNAIYFKGNWKDKFMKEATTNAPFRLNKKDRKTVKMMYQKKKFAYGYIEDLKCRVLELPYQGEELSMVILLPDDIEDESTGLKKIEEQLTLEKLHEWTKPENLDFIEVNVSLPRFKLEESYTLNSDLARLGVQDLFNSSKADLSGMSGARDIFISKIVHKSFVEVNEEGTEAAAATAGIATFCMLMPEENFTADHPFLFFIRHNSSGSILFLGRFSSP
modifications: N-terminal tag; inactive
effect on Ki67+ insulin+ cells (mouse islets (β-cells) [9]): no impact
